Results on three compounds are retold here after patent US20060003382A1, “Compositions and methods for analyte detection” (priority 2004, published 2006).

The target of assay [1] is T1, egg white avidin (Gallus gallus, UniProt P02701).
T1 construct: Egg white avidin (Molecular Probes); purchased Molecular Probes; host or cells: egg white
Description: Cyclic / square wave voltammetry of the complexes before and after addition of avidin. Type of assay: binding. Particulars: for current signal of the redox couple upon addition of avidin: CV, glassy carbon electrode; for current signal after addition of biotin to the avidin-bound complex (displacement): 25 equiv (25-fold excess) of biotin. As to the method:
All operations involving Ru were carried out under argon according to standard Schlenk techniques. [(H2O)Ru(NH3)5]^2+ was either generated and isolated as the PF6^− salt according to the literature procedure and then used or the or Cl^− salt was used directly (See, e.g., Callahan et al., Inorg. Chem. 1975, 14, 1443-1453). Electrochemical experiments were carried out using a CH Instruments 660A workstation, a glassy carbon working electrode, a Ag/AgCl reference electrode and a platinum wire counter electrode.
A solution of [(4-BMP)Ru(NH3)5](PF6)2 in pH 9.3 phosphate buffer was prepared and the cyclic voltammogram obtained.
A solution of 1.0 mg [(4-DMP)Ru(NH3)5](PF6)2 in 4.2 mL 0.5M NaCl in H2O was prepared and the cyclic voltammogram obtained. […] To this was added 26 mg avidin, the CV obtained, and then 0.25 mL of a solution of methyl viologen (10 mg/5 mL; 7.77×10^−3M) was added and the CV remeasured.
A 19 mg portion of avidin was added, the CV and square wave voltammograms were recorded.
A 4.8×10^−5 M solution (0.75 mg) of [(4-DPEP)Ru(NH3)5](PF6)2 in pH 7.18 phosphate buffer was prepared and the cyclic voltammogram obtained.
The electrochemical experiments were performed in phosphate buffer at pH 9.3, 8.1, and 7.3, in 0.5M NaCl solution, and in pH 7.3 HEPES buffer.

In assay [2] the target is T2, avidin (Gallus gallus, UniProt P02701). Description: Oxidation by [Ru(NH3)6]^3+, decrease of UV-visible absorption at 410 nm over time, free vs avidin-bound. The following applies: oxidant [Ru(NH3)6]^3+. The protocol:
In the case of [(4-DPEP)Ru(NH3)5]^2+ the oxidant [Ru(NH3)6]^3+ was added and the decrease of the UV-visible absorption at 410 nm was monitored over time.

Assay [3] addresses T2, avidin. Particulars: non-covalent protein-small molecule interaction; cited from earlier work.

T1 sequence (P02701 25-152): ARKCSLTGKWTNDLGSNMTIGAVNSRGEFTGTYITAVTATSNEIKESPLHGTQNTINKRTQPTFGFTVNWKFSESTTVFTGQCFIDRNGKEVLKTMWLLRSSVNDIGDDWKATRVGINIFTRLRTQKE
T2 sequence (P02701 25-152): as above

For the compound “[(4-DPEP)Ru(NH3)5][PF6]2 [[(4-DPEP)Ru(NH3)5]^2+]”, the “current signal of the redox couple upon addition of avidin” value was “decreased the signal” in assay [1] and “disappeared upon addition of avidin” in assay [1] (listed as [(4-DPEP)Ru(NH3)5](PF6)2). In assay [2], the “rate of oxidation, avidin-bound versus free complex” value is “qualitatively slower”.

In the case of `C[C@@H]1NC(=O)N[C@@H]1CCCCCC(=O)O` [desthiobiotin], the “kd of binding to avidin” value in assay [3] is on record as “only slightly lower than that of biotin-avidin”.

Take “[(4-DMP)RU(NH3)5][PF6]2 [[(4-DMP)Ru(NH3)5]^2+]”: in assay [1], the “current signal after addition of biotin to the avidin-bound complex (displacement)” value was “increased nearly to the original level” and the “current signal of the redox couple upon addition of avidin” value is reported as “decreased”. The “current signal after addition of biotin to the avidin-bound complex (displacement)” value in assay [1] (listed as [(4-DMP)Ru(NH3)5](PF6)2) is “the signal was regenerated”. Further, the “effect of added electrochemical mediators on the current signal of the Ru couple” value in assay [1] (avidin present, mediators 4,4′-bipyridine and methyl viologen) was “no effect on the current signal”.
